Experimental data published in patent US7528223B2 (priority 2002, dated 2009).

What was measured:
[1] = tested on: peptide-specific T cells in patient-derived peripheral blood mononuclear cells (PBMC); type: cell-based, human (HLA-A*0201 HCV positive patient); conditions: for Counts-mean size >10 / Counts-mean size >25 / Counts-mean size >75: IFN-g ELIspot spot counts, Patient, Plate 11_01_03, patient-derived PBMC; for Counts-mean size >10: spot size >10; for Counts-mean size >25: spot size >25; for Counts-mean size >75: spot size >75; for number of peptide-specific T cells (IFN-g Elispot): PBMC of patient cured of chronic HCV infection, frozen 1996 (Table 5, FIG. 3)
Source text: Since those ncORF peptides are immunogenic in tg-mice, the present peptides were ananlysed in an ELIspot assay on PBL's from HCV+ patients.
Patient-derived peripheral blood mononuclear cells (PBMC) frozen in 1996 were thawed to perform an IFN-g Elispot assay with the following peptides: […]

[2] = tested on: peptide-specific IFN-γ producing cells; parameters: species or system C57B1/6 mice; conditions: mouse, in vivo, sc

With FMLGALLPI [Ipep 1373] the “Counts-mean size >10” value [1] was 159, the “Counts-mean size >25” value [1] was 86 and the “Counts-mean size >75” value [1] was 3. The “number of peptide-specific T cells (IFN-g Elispot)” value (“number of peptide-specific T cells” for short) [1] was “high numbers of peptide-specific T cells”.
IASNENMETM [p1574, reference compound] was tested, and the “peptide-specific IFN-γ spots (ELIspot)” value [2] was “do not show any specific spots”.
In the case of LLLQRWALV [Ipep 1372], the “Counts-mean size >10” value [1] is reported as 43, the “Counts-mean size >25” value [1] is reported as 36 and the “Counts-mean size >75” value [1] is reported as 13. For the same sequence, the “number of peptide-specific T cells” value [1] was “high numbers of peptide-specific T cells”.
In the case of SSIAAQDAL [p1600], the “peptide-specific IFN-γ spots (ELIspot)” value [2] is reported as “do not show any specific spots”.
In the case of TLWAGPLLKV [Ipep 1371], the “Counts-mean size >10” value [1] is reported as 24, the “Counts-mean size >25” value [1] is reported as 15 and the “Counts-mean size >75” value [1] is reported as 2. For the same sequence, the “number of peptide-specific T cells” value [1] was “high numbers of peptide-specific T cells”.
With TMLYNKMEF [p1569] the “peptide-specific IFN-γ spots (ELIspot)” value [2] was “specifically release IFN-γ”.
For VTILNLALL [p1664], the “peptide-specific IFN-γ spots (ELIspot)” value [2] was “specifically release IFN-γ”.
